Data reported in PMC9694146, “Novel [1,2,4]triazolo[3,4-b][1,3,4]thiadiazine and [1,2,4]triazolo[3,4-b][1,3,4]thiadiazepine Derivatives: Synthesis, Anti-Viral In Vitro Study and Target Validation Activity” (Molecules, 2022).

Test system: not given
Test: not given
Settings: not given

Which melting point does the source give for `CCCc1nnc2n1NCC=C(c1ccccc1)S2` here?
The melting point was 103 to 104 °C.

For `CCCc1nnc2n1N=CC=C(c1ccccc1)S2`, which melting point is on record?
Its melting point is 88 to 89 °C.

Test system: not listed separately
Test: Cytotoxicity, methyltetrazolium (MTT) assay on MDCK cell monolayer
Assay type: cell-based
Settings: dog; MDCK cells, 72 h, MTT; read-out: CC50, cytotoxic concentration; the concentration resulting in 50% death of cells
Description: (§1) The cytotoxic properties of the compounds were investigated in a separate series of experiments. A series of threefold dilutions (300–3.7 µg/mL) were prepared from the test compounds, after which they were added to the wells of plates with a monolayer of MDCK cells (ATCC CCL-34). […] The plates with cells were incubated for 2 h. The precipitate was dissolved in DMSO (0.1 mL per well). The optical density in the wells was measured on a Thermo Multiskan FC plate photometer (Thermo Fisher Scientific, USA) at a wavelength of 540 nm. Based on the obtained data, CC50 values (the concentration of the compound, leading to a decrease in optical density by half, compared to wells without the addition of compounds) were calculated.

Which CC50 at 72 h does the source give for `Sc1nncn1N=CC#Cc1ccccc1` [Compound 1a, 4-((3-phenylprop-2-yn-1-ylidene)amino)-4H-1,2,4-triazole-3-thiol] here?
Its CC50 at 72 h is 134 ± 11 µM.

For `Cc1nnc(S)n1N=CC#Cc1ccccc1` [Compound 1b, 5-methyl-4-((3-phenylprop-2-yn-1-ylidene)amino)-4H-1,2,4-triazole-3-thiol], which CC50 at 72 h is on record?
Its CC50 at 72 h is 126 ± 11.3 µM.

For `CCc1nnc(S)n1N=CC#Cc1ccccc1` [Compound 1c, 5-ethyl-4-((3-phenylprop-2-yn-1-ylidene)amino)-4H-1,2,4-triazole-3-thiol], which CC50 at 72 h is on record?
The CC50 at 72 h was 119 ± 9.6 µM.

With `Sc1nncn1NCC#Cc1ccccc1` [Compound 2a, 4-((3-phenylprop-2-yn-1-yl)amino)-4H-1,2,4-triazole-3-thiol] as the molecule, how does the CC50 at 72 h read?
Its CC50 at 72 h is > 1300 µM.

Which CC50 at 72 h does the source give for `Cc1nnc(S)n1NCC#Cc1ccccc1` [Compound 2b, 5-methyl-4-((3-phenylprop-2-yn-1-yl)amino)-4H-1,2,4-triazole-3-thiol] here?
Its CC50 at 72 h is > 1200 µM.

For `CCc1nnc(S)n1NCC#Cc1ccccc1` [Compound 2c, 5-ethyl-4-((3-phenylprop-2-yn-1-yl)amino)-4H-1,2,4-triazole-3-thiol], which CC50 at 72 h is on record?
The CC50 at 72 h was 487 ± 22.5 µM.

For `CCCc1nnc(S)n1NCC#Cc1ccccc1` [Compound 2d, 5-propyl-4-((3-phenylprop-2-yn-1-yl)amino)-4H-1,2,4-triazole-3-thiol], which CC50 at 72 h is on record?
Its CC50 at 72 h is 138 ± 12 µM.

With `C1=Nn2cnnc2S/C1=C\c1ccccc1` [Compound 6a, (Z)-7-benzylidene-7H-[1,2,4]triazolo[3,4-b][1,3,4]thiadiazine] as the molecule, how does the CC50 at 72 h read?
The CC50 at 72 h was 578 ± 32.3 µM.

For `Cc1nnc2n1N=C/C(=C/c1ccccc1)S2` [Compound 6b, (Z)-7-benzylidene-3-methyl-7H-[1,2,4]triazolo[3,4-b][1,3,4]thiadiazine], which CC50 at 72 h is on record?
Its CC50 at 72 h is 433 ± 37.6 µM.

Which CC50 at 72 h does the source give for `CCc1nnc2n1N=C/C(=C/c1ccccc1)S2` [Compound 6c, (Z)-7-benzylidene-3-ethyl-7H-[1,2,4]triazolo[3,4-b][1,3,4]thiadiazine] here?
Its CC50 at 72 h is 979 ± 55.1 µM.

With `CCCc1nnc2n1N=C/C(=C/c1ccccc1)S2` [Compound 6d, (Z)-7-benzylidene-3-propyl-7H-[1,2,4]triazolo[3,4-b][1,3,4]thiadiazine] as the molecule, how does the CC50 at 72 h read?
Its CC50 at 72 h is > 1100 µM.

With `C1=Nn2cnnc2SC(c2ccccc2)=C1` [Compound 7a, 8-phenyl-[1,2,4]triazolo[3,4-b][1,3,4]thiadiazepine] as the molecule, how does the CC50 at 72 h read?
Its CC50 at 72 h is 42.9 ± 3.2 µM.

With `CCc1nnc2n1N=CC=C(c1ccccc1)S2` [Compound 7c, 3-ethyl-8-phenyl-[1,2,4]triazolo[3,4-b][1,3,4]thiadiazepine] as the molecule, how does the CC50 at 72 h read?
The CC50 at 72 h was 6.1 ± 0.3 µM.

Which CC50 at 72 h does the source give for `C(=C1\CNn2cnnc2S1)/c1ccccc1` [Compound 8a, (Z)-7-benzylidene-6,7-dihydro-5H-[1,2,4]triazolo[3,4-b][1,3,4]thiadiazine] here?
The CC50 at 72 h was > 1300 µM.

For `Cc1nnc2n1NC/C(=C/c1ccccc1)S2` [Compound 8b, (Z)-7-benzylidene-3-methyl-6,7-dihydro-5H-[1,2,4]triazolo[3,4-b][1,3,4]thiadiazine], which CC50 at 72 h is on record?
The CC50 at 72 h was > 1200 µM.

For `CCc1nnc2n1NC/C(=C/c1ccccc1)S2` [Compound 8c, (Z)-7-benzylidene-3-ethyl-6,7-dihydro-5H-[1,2,4]triazolo[3,4-b][1,3,4]thiadiazine], which CC50 at 72 h is on record?
The CC50 at 72 h was > 1100 µM.

With `CCCc1nnc2n1NC/C(=C/c1ccccc1)S2` [Compound 8d, (Z)-7-benzylidene-3-propyl-6,7-dihydro-5H-[1,2,4]triazolo[3,4-b][1,3,4]thiadiazine] as the molecule, how does the CC50 at 72 h read?
Its CC50 at 72 h is > 1100 µM.

For `C1=C(c2ccccc2)Sc2nncn2NC1` [Compound 10a, 8-phenyl-5,6-dihydro-[1,2,4]triazolo[3,4-b][1,3,4]thiadiazepine], which CC50 at 72 h is on record?
Its CC50 at 72 h is > 1300 µM.

Which CC50 at 72 h does the source give for `Cc1nnc2n1NCC=C(c1ccccc1)S2` [Compound 10b, 3-methyl-8-phenyl-5,6-dihydro-[1,2,4]triazolo[3,4-b][1,3,4]thiadiazepine] here?
Its CC50 at 72 h is > 1100 µM.

For `CCc1nnc2n1NCC=C(c1ccccc1)S2` [Compound 10c, 3-ethyl-8-phenyl-5,6-dihydro-[1,2,4]triazolo[3,4-b][1,3,4]thiadiazepine], which CC50 at 72 h is on record?
Its CC50 at 72 h is 972 ± 66.4 µM.

With `CCC(CC)O[C@@H]1C=C(C(=O)O)C[C@H](N)[C@H]1NC(C)=O` [Oseltamivir carboxylate, reference compound] as the molecule, how does the CC50 at 72 h read?
Its CC50 at 72 h is > 100 µM.

Which CC50 at 72 h does the source give for `CC(N)C12CC3CC(CC(C3)C1)C2` (centres unmarked) [Rimantadine, reference compound] here?
The CC50 at 72 h was 312 ± 22.8 µM.

Test system: MDCK cells (ATCC CCL-34)
Test: as above
Assay type: cell-based
Settings: 300 μg/mL, 1100–1300 μM
Description: as §1

With `CCCc1nnc2n1N=C/C(=C/c1ccccc1)S2` [Compound 6d, (Z)-7-benzylidene-3-propyl-7H-[1,2,4]triazolo[3,4-b][1,3,4]thiadiazine] as the molecule, how does the “cytotoxicity at the highest concentration used” value read?
Its value is “did not demonstrate cytotoxicity”.

Same assay, conditions: 72 h, MTT

With `CCc1nnc2n1N=CC=C(c1ccccc1)S2` [Compound 7c, 3-ethyl-8-phenyl-[1,2,4]triazolo[3,4-b][1,3,4]thiadiazepine] as the molecule, how does the “CC50, cytotoxic concentration; the concentration resulting in 50% death of cells” value read?
The value was “one-digit micromoles”.
